Patent US20090035345A1, “Nuclear Receptors Agonists for Treatment of Atherosclerosis and/or Related Cardiovascular Disease” (ACADEMISCH MEDISCH CENTRUM, BUREAU, priority 2005, published 2009)

Key:
[1] = system: TR3-like factors; conditions: Chintharlapalli et al., J Biol. Chem. 2005; cited from earlier work
[2] = system: human SMCs; test: DNA synthesis assay ([3H]thymidine incorporation) in FBS-stimulated cultured SMCs; type: cell-based; conditions: for DNA synthesis in SMCs: increasing concentrations of C-DIM
Method: (§1) Human SMCs were explanted from umbilical cord arteries. Cells were cultured in DMEM (Invitrogen Life Technology, Breda, The Netherlands) with 10% (v/v) fetal bovine serum (FBS) with penicillin and streptomycin (Invitrogen). Cells were used at passages five to seven. […] To determine cellular viability, cells were washed with PBS and subsequently incubated in medium in the presence of 0.5-mg/ml 3-(4,5-dimethylthiazol-2-yl)-2,5-diphenyltetrazolium bromide (MTT; Sigma Diagnostics, St. Louis). After two hours, medium was discarded, formazan crystals were dissolved in isopropanol and optical density was measured at 590 nm. Apoptosis was induced by incubating cells for 24 hours in medium with 0.25 μM staurosporine (Sigma). Subsequently, SMCs were fixed, stained with Hoechst dye and the relative number of apoptotic nuclei was determined.
SMCs were seeded in 24-well plates at 1−4×10^4 cells per well and reached 60% to 70% confluency after 24 hours. SMCs were made quiescent by incubation for 24 hours in FBS-free medium. 6-MP was dissolved in dimethylsulfoxide and applied one hour before FBS stimulation. SMCs were stimulated for 24 hours with 10% (v/v) FBS and subsequently cells were labeled for 18 hours with 0.25 μCi/well [methyl-3H]thymidine (Amersham Biosciences, Buckinghamshire, UK). Incorporated radioactivity was precipitated for 30 min at 4° C. with 10% (w/v) trichloroacetic acid, washed twice with 5% (w/v) trichloroacetic acid, and dissolved in 0.5 N NaOH (0.5 mL per well). Incorporated [^3H]thymidine was measured by liquid-scintillation counting.
(§2) The following small interfering (si)RNA sequences were used: Nur77 siRNA, 5′-CAG UCC AGC CAU GCU CCU C dTdT-3′, as described previously^20, and control siRNA, 5′-CAG ACG AGC CUU GCU CGU C dTdT-3′ (Ambion Inc., Austin, Tex.). Five μg of siRNA was transfected into 0.5−1×10^6 SMCs, using Nucleofector reagent for SMCs (Amaxa) as per the manufacturer's recommendations. Total mRNA was isolated five days after transfection, using the absolutely mRNA miniprep kit (Stratagene, La Jolla, Calif.). Subsequent cDNA synthesis was performed using the iScript cDNA synthesis kit (Biorad, Hercules, Calif.). Real-time polymerase chain reaction (PCR) was performed using SYBR green mix (Biorad) in the MyIQ System (Biorad). Primers for Nur77 were as follows: (forward) 5′-[…]-3′ and (reverse) 5′-[…]-3′. As a control for equal amount of first strand cDNA in different samples we corrected for Ribosomal Phosphoprotein (P0) mRNA levels, which were determined with the following primers (forward) 5′-[…]-3′ and (reverse) 5′-[…]-3′.
as §2, with “iscript” for “iScript”

[3] = system: human SMCs; test: SMC viability by MTT assay; type: cell-based; conditions: quiescent SMCs, 24 hours
Method: as §1

[4] = system: human SMCs; test: Apoptosis of SMCs, Hoechst staining of nuclei; type: cell-based; conditions: 24 hours
Method: as §1

SMILES | activity of TR3-like factors [1] | DNA synthesis in SMCs ([2]; serum) | effectiveness in inhibiting DNA synthesis compared with the other C-DIMs ([2]; serum, increasing concentrations) | inhibition of DNA synthesis ([2]; SMCs transfected with Nur77 (TR3)-specific siRNA) [%] | inhibition of DNA synthesis ([2]; SMCs transfected with control siRNA) [%] | cellular viability / cytotoxicity (MTT) [3] | reduction of number of viable cells (MTT) [3] [%] | induction of apoptosis ([4]; SMCs, staurosporine 0.25 μM) | apoptosis (apoptotic nuclei) ([4]; quiescent SMCs)
FC(F)(F)c1ccc(C(c2c[nH]c3ccccc23)c2c[nH]c3ccccc23)cc1 [C-DIM-CF3] | increase the activity of TR3-like factors | inhibit DNA synthesis in SMCs dose dependently |  |  |  |  |  |  | 
c1ccc(C(c2c[nH]c3ccccc23)c2c[nH]c3ccccc23)cc1 [C-DIM-H] | increase the activity of TR3-like factors | inhibit DNA synthesis in SMCs dose dependently | less effective |  |  |  |  |  | 
COc1ccc(C(c2c[nH]c3ccccc23)c2c[nH]c3ccccc23)cc1 [C-DIM-OCH3] | increase the activity of TR3-like factors | inhibit DNA synthesis in SMCs dose dependently |  | 40.1 | 49.7 |  |  |  | 
CN[C@@H]1C[C@H]2O[C@@](C)([C@@H]1OC)n1c3ccccc3c3c4c(c5c6ccccc6n2c5c31)C(=O)NC4 [staurosporine] |  |  |  |  |  | reduces cell viability | 35 | induces apoptosis | 50%±4%
